Data on 3 compounds can be found in article PMC2806525, “Proteinase-activated receptor-2 mediated inhibition of TNFα-stimulated JNK activation — A novel paradigm for Gq/11 linked GPCRs” (Cellular Signalling, 2010).

Entries after “also recorded” stand apart in the source; their conditions may differ.

Test [1] has as its system β2. The conditions noted are these: ref [34]; cited from earlier work. The source says: (§1) Thus, we can discern two agonist-mediated directed events which relate to the activation of JNK. This type of m ...
The subject of test [2] is β2. The conditions noted are these: ref [34]; cited from earlier work. This is another data set of the same source.
The target of test [3] is T1, human PAR2 (Homo sapiens, UniProt P55085).
T1 construct: expressed in transfected cells
T1 sequence (P55085 26-397): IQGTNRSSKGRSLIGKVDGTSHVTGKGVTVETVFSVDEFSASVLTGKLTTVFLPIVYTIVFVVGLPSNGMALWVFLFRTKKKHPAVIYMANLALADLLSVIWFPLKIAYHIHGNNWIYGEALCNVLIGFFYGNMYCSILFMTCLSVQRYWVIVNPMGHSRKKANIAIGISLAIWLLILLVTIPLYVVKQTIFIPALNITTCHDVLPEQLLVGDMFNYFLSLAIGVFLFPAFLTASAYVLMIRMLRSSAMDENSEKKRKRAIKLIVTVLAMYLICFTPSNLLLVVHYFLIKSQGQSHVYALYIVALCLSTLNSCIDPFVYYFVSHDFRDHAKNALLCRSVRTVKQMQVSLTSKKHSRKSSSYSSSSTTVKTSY
In words: TNFα-stimulated JNK activity (in vitro c-Jun phosphorylation), PAR2 agonist pre-incubation, PAR2 NCTC2544 cells (clone G). The test is classed as cell-based. The settings on record: pre-incubation 30 min, TNFα 10 ng/ml 30 min. On the procedure:
(§2) Human skin epithelial cells NCTC2544 were maintained in M199 medium with Earl's salt supplement, 10% (v/v) foetal calf serum, L-glutamine (27 µg/ml), penicillin (250 U/ml), and streptomycin (25 mg/ml). NCTC2544 cells stably expressing human PAR2 (clone G) were maintained in complete M199 medium containing 400 μg/ml of Geneticin for selection pressure and passaged using Versene (2% EDTA/PBS). EAhy-926 cells were produced by hybridizing human umbilical vein endothelial cells (HUVECs) with the epithelial cell line A549 [27] and maintained in Dulbecco's Modified Eagle's Medium (DMEM) supplemented with 10% foetal calf serum (FCS), hypoxanthine/aminopterin/thymidine (HAT supplement), penicillin (250 U/ml) and streptomycin (25 mg/ml), and cells were passaged using Versene.
To measure JNK activity, cells were stimulated as appropriate and the reaction terminated by rapid aspiration and the addition of ice-cold PBS. […] Phosphorylation of GST-c-Jun was then determined by autoradiography. […]
(§3) Fig. 1 PAR2 activation mediates inhibition of TNFα-stimulated JNK activity and phosphorylation in PAR2 NCTC2544 cells. […] Samples were assessed for JNK activity (Panel A) or phospho-JNK levels (Panel C) as outlined in the Methods section. Gels from JNK assays were quantified (Panel B). Each value represents the mean ± s.e.m from at least 4 experiments and data was quantified by densitometry. ⁎P < 0.05, ⁎⁎P < 0.01 compared to TNFα alone.
Fig. 4 Concentration response effects of PAR2 peptides for activation of JNK and inhibition of TNFα-stimulated JNK. PAR2 expressing NCTC2544 cells (clone G) were incubated with increasing concentrations of SLIGKV-OH or 2f-LIGKV-OH for 30 min and assayed for JNK activity (Panel B) or stimulated for a further 30 min with TNFα (+) before JNK activity was assessed (Panel A). Samples were assessed for JNK activity as outlined in the Methods section. Gels from JNK assays were quantified (Panel C). Each value represents the mean ± s.e.m from at least 4 experiments and data was quantified by densitometry.

For test [4], the target named is T1, human PAR2. In words: TNFα-stimulated JNK phosphorylation (Western blot), PAR2 NCTC2544 cells (clone G). The conditions noted are these: pre-incubation 30 min, TNFα 10 ng/ml 30 min. The test is classed as cell-based. On the procedure: as §2
(§4) Proteins were separated by 10% SDS–PAGE and transferred onto nitrocellulose. […]
as §3
For orientation: A western blot detects proteins with antibodies after separation by electrophoresis.

Test [5] concerns the target T1, human PAR2. The settings on record: ref [17]; cited from earlier work.
Description: as §1

For another test, the system named is TNFR1/TRADD. In words: TNFR1/TRADD complex formation (TNFR1 immuno-precipitation, TRADD immuno-blot), PAR2 expressing cells. The test is classed as cell-based, human. The conditions noted are these: TNFα 10 ng/ml 30 min, versus basal. On the procedure:
as §2
Proteins were separated by 10% SDS–PAGE and transferred onto nitrocellulose. The membranes were blocked for non-specific binding for 2 h in 2% BSA (w/v) diluted in NATT buffer (50 mM Tris–HCl, 150 mM NaCl, 0.2% (v/v) Tween-20). The blots were then incubated overnight with 50 ng/ml primary antibody diluted in 0.2% BSA (w/v) in NATT buffer. The blots were washed with NATT buffer for 90 min and incubated with HRP-conjugated secondary antibody (20 ng/ml in 0.2% BSA (w/v) diluted in NATT buffer) for 2 h. After a further 90 min wash, the blots were subjected to ECL reagent and exposed to Kodak X-ray film.
For immuno-precipitation of TNFR1, equal amounts of pre-cleared cell lysates were incubated in Tris–HCl buffer, pH 7.4, containing 50 mM NaCl, 1 mM EDTA, 1 mM EGTA, 1% (w/v) Triton X-100, and 0.5% (w/v) Nonidet P-40, with 2 μg TNFR1 antibody, pre-coupled to protein G, for 3 h. Lysates were recovered by sequential washes in solubilisation buffer and in the same buffer lacking detergents. Precipitates were assessed for TRADD or RIP content using Western blotting.
Fig. 7 PAR2 mediated TNFR1 adapter protein disruption in PAR2 expressing cells. In Panel A, cells were pre-treated with peptide (100 μM) or vehicle prior to stimulation with TNFα (10 ng/ml) for 30 min. Lysates were immuno-precipitated for TNFR1 and immuno-blotted for TRADD and/or RIP, as outlined in the Methods section. In Panel B cells were pre-treated with 100 nM YM254890 or 3 μM GF109203X for 30 min prior to pre-treatment with peptide (100 μM), for 30 min, then incubated for a further 30 min with TNFα (10 ng/ml). TNFR1 immuno-precipitates were immuno-blotted for TRADD. Each gel is representative of at least three experiments.

Another test has as its system TNFR1/RIP. In words: TNFR1/RIP complex formation (TNFR1 immuno-precipitation, RIP immuno-blot), PAR2 expressing cells. The test is classed as cell-based, human. The conditions noted are these: TNFα 10 ng/ml 30 min, versus basal. On the procedure: as §2
Proteins were separated by 10% SDS–PAGE and transferred onto nitrocellulose. The membranes were blocked for non-specific binding for 2 h in 2% BSA (w/v) diluted in NATT buffer (50 mM Tris–HCl, 150 mM NaCl, 0.2% (v/v) Tween-20). […]
For immuno-precipitation of TNFR1, equal amounts of pre-cleared cell lysates were incubated in Tris–HCl buffer, pH 7.4, containing 50 mM NaCl, 1 mM EDTA, 1 mM EGTA, 1% (w/v) Triton X-100, and 0.5% (w/v) Nonidet P-40, with 2 μg TNFR1 antibody, pre-coupled to protein G, for 3 h. […] Precipitates were assessed for TRADD or RIP content using Western blotting. […]

The test system of another test is ERK. In words: ERK activation, PAR2 NCTC2544 cells. In kind it is cell-based, human. The conditions noted are these: response to TNFα; data not shown. On the procedure: as §2
The next test has as its system JNK. Put plainly: TNFα-stimulated JNK phosphorylation and activity, PAR2 NCTC2544 cells. In kind it is cell-based, human. The settings on record: TNFα 10 ng/ml 30 min, untreated cells. On the procedure:
as §2, §4
To measure JNK activity, cells were stimulated as appropriate and the reaction terminated by rapid aspiration and the addition of ice-cold PBS. […] Phosphorylation of GST-c-Jun was then determined by autoradiography.
Fig. 6 Gq/11 is essential for PAR2 mediated inhibition of JNK activation by TNFα. […] Samples were assessed for phospho-JNK levels (Panels A and D) or JNK activity (Panel B) as outlined in the Methods section. Gels from JNK activity assays were quantified by densitometry (Panel C). […]

`CC(C)NCC(O)COc1cccc2ccccc12` (stereo not drawn) [propranolol]: the “cAMP accumulation, functional behaviour” value in the test on β2 [1] is reported as “inverse agonist”. Further, the “ERK activation, functional behaviour” value with β2 [2] is on record as “partial agonist”.

On to trypsin, for which the “effect on TNFα-stimulated JNK activity” value at human PAR2 [3] was “strongly inhibited both the phosphorylation and activity of JNK; also recorded: concentration-dependent inhibition of subsequent TNFα-stimulated JNK activity; also recorded: strongly mediate an inhibition of TNFα mediated JNK signalling”. On human PAR2 [4], the “effect on TNFα-stimulated JNK phosphorylation” value is “strongly inhibited both the phosphorylation and activity of JNK”. The “JNK activity on PAR2 activation” value at human PAR2 [5] is reported as “increase in JNK activity”.

With tumour necrosis factor-α [TNFα], the “TRADD recovery with TNFR1 on stimulation” value with TNFR1/TRADD is “marked increase in both TRADD and RIP recovery”. The “RIP recovery with TNFR1 on stimulation” value in the test with TNFR1/RIP is “marked increase in both TRADD and RIP recovery”. The “ERK activation” value with ERK is recorded as “negligible”. In addition, the “TNFα stimulation of JNK phosphorylation and activity” value in the test with JNK was “stimulated JNK phosphorylation and activity as expected”.
